# According to PMC8689208, “Structure of a monomeric photosystem II core complex from a cyanobacterium acclimated to far-red light reveals the functions of chlorophylls d and f” (The Journal of Biological Chemistry, 2021):
# Biological target: T1, apo-FRL-PSII (reaction centre PsbA3/PsbD3 sites) (Synechococcus sp. PCC 7335, UniProt B4WKI3+Z9EN74SDD1)
# T1 construct: native monomeric core complex from FRL-acclimated cells, ~226 kDa modelled; His6 tag at C-terminus of PsbC2; lacks OEC, extrinsic subunits and PsbH2 in map; PsbF2 assignment tentative; one unknown helix; with Photosystem II CP47 reaction center protein; Photosystem II CP43 reaction center protein; Cytochrome b559 subunit alpha; Cytochrome b559 subunit beta; Photosystem II reaction center protein I; Photosystem II reaction center protein K
# Test: cryo-EM structure, […] Å
# Format: binding
# Conditions: QA site; QB absent
smiles,measurement,value
CC(C)=CCC/C(C)=C/CC/C(C)=C/CC/C(C)=C/CC/C(C)=C/CC/C(C)=C/CC/C(C)=C/CC/C(C)=C/CC/C(C)=C/CC1=CC(=O)C(C)=C(C)C1=O [plastoquinone],"cryo-EM structure, 2.25 Å","one heme b, one plastoquinone, one NH-Fe ion"
